In article PMC9786170, “The Pharmacological Potential of Novel Melittin Variants from the Honeybee and Solitary Bees against Inflammation and Cancer” (Toxins, 2022):

Key:
[1] = test system: TNF-activated EC monolayer; experiment: Adhesion of THP-1 leukocytes onto TNF-activated endothelial cells; type: cell-based, human; details: peptide 30 min, TNF 10 ng/mL 24 h, THP-1 adhesion 5 min, static, fluorescence, n = 2
Method: Figure 4 Influence of melittin derivates on inflammation-associated cell functions. (A,B) For the NO induction assay (A), RAW264.7 cells were treated with melittin peptides in the indicated concentrations for 24 h. For the NO inhibition assay (B), RAW264.7 cells were pretreated with melittin peptides in the indicated concentrations for 30 min and then stimulated with 100 ng/mL LPS for 24 h. NO was detected in the supernatant using the Griess method. […] THP-1 cell adhesion under static conditions. HUVECs were grown to confluence, preincubated with bee venoms for 30 min, and activated with TNF (10 ng/mL) for 24 h. For the leukocyte adhesion assay, untreated THP-1 cells were stained with CellTracker Green and were allowed to adhere to the treated HUVECs for 5 min. The adhesion of leukocytes onto Ecs was quantified by fluorescence measurements for all cell adhesion experiments. Data are expressed as means ± SEM, (A,B) n = 3, (C) n = 2. * p ≤ 0.05 vs. TNF (positive) control.
For the investigation of leukocyte adhesion under static conditions, HMEC-1 cells were seeded into 96-well plates and cultured until they became confluent. […] Then, the fluorescence signal from adherent THP-1 cells was measured by a Tecan Infinite F200 Pro microplate reader (Tecan, Männedorf, Switzerland) (excitation: 485 nm, emission: 535 nm).

HMEC-1 cells = experiment: Proliferation assay (crystal violet) in HMEC-1 cells; type: cell-based, human; details: HMEC-1, 25 µg/mL, 72 h, n = 2–3
Method: (§1) Figure 1 Toxicity characterization of cells treated with melittin peptides. (A,B) For the viability assay, RAW264.7 (A) or HEK293T (B) cells were treated with bee venom compounds in the indicated concentrations for 24 h. Cells were incubated with WST-8 and the formed formazan was detected by absorbance measurements. (C) For the proliferation assay, HMEC-1 cells were grown in low density and treated after 24 h with the indicated peptide (25 µg/mL) for 72 h. Cells were stained with crystal violet solution. The amount of DNA-bound crystal violet was detected by absorbance measurements. (D) The number of sub-diploidic cells was determined by staining with propidium iodide (PI) and quantified to assess apoptosis of HUVECs. Data are expressed as mean ± SEM. (A) n = 3, (B) n = 4, (C) n = 2–3, (D) n = 2. * p ≤ 0.05 versus control.
(§2) HMECs (2000 cells/well) were seeded into collagen-coated 96-well plates and grown for 24 h. Then, they were treated with melittin peptides. […] Absorbance was measured at 590 nm using a plate reader (Infinite F200Pro, Tecan, Männedorf, Switzerland). The proliferation percentage was calculated by normalizing to the untreated control (24 h) and compared to the DMSO control (0.03%) of 72 h incubation. […]

non-cancer cells = experiment: Viability of non-cancer cells (RAW264.7, HEK293T, HMEC, HUVEC), overall statements; type: cell-based
Excerpt: First, we studied the activity of the melittin peptides on the viability of non-cancer cells. The toxicity of all melittin variants was investigated in monocyte/macrophage-like cells (RAW264.7), human embryonic kidney 293 cells (HEK293T), human microvascular endothelial cells (HMEC), and primary human umbilical vein endothelial cells (HUVECs).
For assessing the cytotoxicity of all peptides, various cell types and assays were utilized. To determine the cell viability of HEK293T and RAW246.7 cells, the Orangu^TM assay (Cell Guidance Systems Ltd., Cambridge, UK) was used, as previously described. 2 × 10^5 HEK293T or 2 × 10^5 RAW246.7 were seeded in 96-well plates. […] After incubation, absorbance was measured at a wavelength of 450 nm with a reference at 650 nm at an EnSpire 2300 Multimode Plate Reader (Perkin Elmer, Lübeck, Germany). To calculate cell viability, the absorbance of vehicle-treated cells was set to 100%, and the melittin derivates-treated samples were correlated to them.
as §2, with “h.” for “h. Then, they were treated with melittin peptides.”

HEK293T cells = experiment: Cell viability assay (WST-8/Orangu formazan) in HEK293T cells; type: cell-based, human; details: 25 µg/mL, 24 h, WST-8 formazan absorbance, n = 4
Method: as §1
For assessing the cytotoxicity of all peptides, various cell types and assays were utilized. […] After incubation, absorbance was measured at a wavelength of 450 nm with a reference at 650 nm at an EnSpire 2300 Multimode Plate Reader (Perkin Elmer, Lübeck, Germany). To calculate cell viability, the absorbance of vehicle-treated cells was set to 100%, and the melittin derivates-treated samples were correlated to them.

[2] = cited from earlier work
Excerpt: Therefore, the identification of biologically active derivatives of melittins with minimal toxicity to healthy cells is important for developing new pharmacological treatment options. In this study, we applied a broad in vitro screening approach of melittin variants from the honeybee and earlier solitary bee lineages to assess whether these ...

RAW264.7 cells = experiment: Cell viability assay (WST-8/Orangu formazan) in RAW264.7 cells; type: cell-based, murine; details: RAW264.7, 25 µg/mL, 24 h, WST-8 formazan absorbance, vehicle = 100%, n = 3
Method: as §1
For assessing the cytotoxicity of all peptides, various cell types and assays were utilized. To determine the cell viability of HEK293T and RAW246.7 cells, the Orangu^TM assay (Cell Guidance Systems Ltd., Cambridge, UK) was used, as previously described. 2 × 10^5 HEK293T or 2 × 10^5 RAW246.7 were seeded in 96-well plates. Different concentrations (0, 0.25, 2.5, 25 µg/mL) of melittin peptides or vehicle (DMSO) were added. After 24 h of incubation at 37 °C and 5% CO2, 10 µL of Orangu^TM cell counting solution was added and incubated for 60 min. After incubation, absorbance was measured at a wavelength of 450 nm with a reference at 650 nm at an EnSpire 2300 Multimode Plate Reader (Perkin Elmer, Lübeck, Germany). To calculate cell viability, the absorbance of vehicle-treated cells was set to 100%, and the melittin derivates-treated samples were correlated to them.

[3] = test system: LPS-activated BV2 microglia; details: by blocking NF-κB translocation; cited from earlier work
Excerpt: (§3) LPS induces iNOS expression and the release of NO in RAW264.7 macrophages. […] Previously, Tang et al. reported that Melt prev ...

[4] = test system: IL-1β-activated rat knee joint cells; details: by inhibiting I-κB degradation and NF-κB migration into the nucleus; cited from earlier work
Excerpt: as §3

[5] = test system: triple-negative and HER2-enriched breast cancer subtypes; details: cited from earlier work
Excerpt: It was also reported that a positively charged C-terminal peptide end is responsible for the plasma membrane ...

Row | Substance | adhesion of THP-1 leukocytes onto endothelial cells [1] | proliferation (HMEC-1 cells) | viability of non-cancer (healthy) cells (non-cancer cells; summary statement, Figure 6) | cytotoxicity (cell viability) (HEK293T cells) | degradation in the blood [2] | reduction of cell viability (RAW264.7 cells) | reduction of viability (non-cancer cells; Discussion, cell line not given) [%] | iNOS expression and NO synthesis [3] | NF-κB activation [4] | apoptosis of breast cancer subtypes [5]
1 | xylopin [Xac4] | reducing the inflammation-associated interaction of endothelial cells with leukocytes | proliferation was augmented | without harming healthy cells | showed cytotoxicity |  |  |  |  |  | 
2 | melittin [Melt, reference compound] |  | proliferation was hindered |  | showed cytotoxicity | fast degradation in the blood | more than 90% | 90 | reduced LPS-activated BV2 microglia iNOS expression and NO synthesis | prevents NF-κB activation | induce apoptosis
